The text below walks through data of ChEMBL document CHEMBL3507680, “University of Dundee, Gates Library screen for HepG2 cell viability”.

This data set in a line: Human HepG2 cell viability assay in 384 well format. To be noted: HepG2 cells, read-out: Inhibition. Also on record: dose 125 nL, time 70.5 hour; cytotoxicity at 70.5 h: concentration not given beside the values. It counts as toxicity, cell-based.

For the compound `CCCS(=O)(=O)NCC(C)(O)c1ccsc1` (stereo not drawn), the cytotoxicity at 70.5 h is -4.32%. For the compound `Cn1nc2c(cc1=O)CN(CC(=O)Nc1nccs1)CC2`, the cytotoxicity at 70.5 h is -3.23%. In the case of `CN(C)c1ccc(NC(=O)c2ccnn2C)nc1` it was 0.439%; in that of `OCC1(NCc2cnc(-c3ccccn3)s2)CCOCC1`, 28%; in that of `Cc1ccc(C(=O)Nc2ccc(N(C)C)cn2)n1C`, 7.03%. With `COCCN(Cc1cccc(C#N)c1)Cc1nc(C)no1` the figure was 28.5%; with `CC(C)(C)n1ncc2c1CCCC2NCc1ccc2c(c1)CCO2` (stereo not drawn), 9.44%. With `CC(C)c1nc(CN2CCN(C(=O)Cc3ccccc3Cl)CC2)no1` the figure was -1.7%; with `O=C(Nc1nnc(C(F)F)s1)N[C@H](CCO)c1ccccc1`, 0.703%. In the case of `CN(C)c1ccc(C(=O)N(CCO)CC2CC2)c(F)c1`, the cytotoxicity at 70.5 h is 30.4%.

In the case of `Cc1nc(CN2CCN(C(=O)CCc3nc(C(C)(C)C)no3)CC2)cs1`, the cytotoxicity at 70.5 h was found to be 5.21%. As to `CC(C)(C)n1ncc2c1CCCC2NCc1ccsc1` (stereo not drawn), the cytotoxicity at 70.5 h was -0.727%. Take `Fc1ccc(CN2CCCCC2Cn2cncn2)c2ncccc12` (stereo not drawn): the cytotoxicity at 70.5 h turned out to be 25.5%. As for `O=S(=O)(NCCCN1CCCC1)c1cc(F)cc(F)c1`, the cytotoxicity at 70.5 h is 27.2%. For the compound `Cc1ccc(C(=O)Nc2cc(C(N)=O)ccc2N2CCCCC2)cc1F`, the cytotoxicity at 70.5 h is -2.35%.

For the compound `O=C(NC1CCN(Cn2nc(-c3ccccc3)oc2=O)CC1)C1CC1`, the cytotoxicity at 70.5 h worked out at 1.77%. With `CCCS(=O)(=O)NCc1cccnc1OCc1ccccc1` the figure was -7.41%; with `NC(=O)c1ccc(N2CCCCC2)c(NC(=O)c2ccc(Br)cc2)c1`, -4.44%. With `CC(C)c1ccc(C2(C(=O)NCCS(N)(=O)=O)CCC2)cc1` the figure was -9.09%; with `Cc1cc(CN(C)C(=O)C2CCCN(C(N)=O)C2)no1` (stereo not drawn), -5.82%; with `COCCNC(=O)Nc1cccc(COCCOC(C)C)c1`, -6.5%. With `Fc1ccc(CN2CCCC2Cn2cncn2)c2ncccc12` (stereo not drawn) the figure was 2.94%; with `O=C(NC1CCC(C(=O)N2CCSCC2)CC1)N1CCOCC1` (stereo not drawn), -5.82%.

`CN(Cc1cnn(C)c1)C(=O)CN1CCCC1Cn1cncn1` (stereo not drawn): the cytotoxicity at 70.5 h stood at 21.4%.

Consider `CC(C)OCCOCc1cccc(NC(=O)NCC(=O)N(C)C)c1`, for which the cytotoxicity at 70.5 h is -2.88%. With `Cc1cc(C(=O)NC2(c3cccc(F)c3)CCOCC2)no1`, the cytotoxicity at 70.5 h was -7.78%. With `Cc1ccc(S(=O)(=O)NCCCN2CCC(O)CC2)cc1Cl` the figure was 4.78%; with `Fc1ccc(CN2CCOC(Cn3cncn3)C2)c2ncccc12` (stereo not drawn), -3.84%; with `CC(C)C1CN(C(=O)c2ccsc2)CCS1` (stereo not drawn), -9.62%.

`Cn1ncnc1CNc1ccc2c(c1)N(C(=O)OC(C)(C)C)CCC2`: the cytotoxicity at 70.5 h was -8.19%. With `Clc1cc(CN2CCCC(Cn3cncn3)C2)c2ncccc2c1` (stereo not drawn) the figure was -12.2%; with `CN(Cc1cccc(F)c1)C(=O)CN1CCCC(Cn2cncn2)C1` (stereo not drawn), 15.6%.

Consider `CN(Cc1ccccc1)C(=O)CSc1ccc2c(c1)OCCO2`, for which the cytotoxicity at 70.5 h came out at 2.14%.

Consider `CCc1cc(NC(=O)C(c2cccc(F)c2)N2CCOCC2)[nH]n1` (stereo not drawn), for which the cytotoxicity at 70.5 h is -4.49%.

As for `Cc1c(C(=O)NCC(C)C)nnn1-c1cccc2c1CCN(CCO)C2`, the cytotoxicity at 70.5 h was -2.54%.

On to `COc1cc(C(=O)N(Cc2ccco2)C2CC2)cc(OC)c1OC`, for which the cytotoxicity at 70.5 h was found to be 23.7%. As to `COc1cc(NC(=O)c2ccc(Cl)cc2F)c(C(=O)N(C)C)cc1OC`, the cytotoxicity at 70.5 h was -11.5%. In the case of `COc1cc(NC(=O)c2ccc(C)cc2C)c(C(=O)N(C)C)cc1OC` it was 4.46%. For `O=C(COc1cccc2c1CCC2=O)NCCc1cccs1`, the cytotoxicity at 70.5 h came to 12.1%. In the case of `O=C(COc1cccc2c1CCC2=O)NCc1ccccc1Cl` it was -10.6%; in that of `CC(CN1CCOCC1)NC(=O)NCCc1ccc(Cl)s1` (stereo not drawn), -6.3%.

`CC(C)COCCC(=O)NCc1cn2cc(Br)ccc2n1`: the cytotoxicity at 70.5 h was 18.2%.

As for `COc1ccc(-c2nnc(SC(C)C(=O)NC(C)(C)C)[nH]2)c(OC)c1` (stereo not drawn), the cytotoxicity at 70.5 h turned out to be 32.5%.

Turning to `O=C(CCCOc1ccccc1F)Nc1cc[nH]n1`, the cytotoxicity at 70.5 h is -6.95%. In the case of `CC(C(=O)NCc1cn2cc(Br)ccc2n1)S(C)(=O)=O` (stereo not drawn) it was -5.34%. With `Cc1cc(NS(=O)(=O)c2ccc(Cl)s2)ccc1-n1cccc1C(=O)O` the figure was -4.85%; with `CS(=O)(=O)N1CCc2c(cccc2NC(=O)Nc2ccccn2)C1`, 10.3%. With `FC(F)(F)c1ccnc(N2CCCN(C3CCOCC3)CC2)c1` the figure was -11.5%. Take `Cc1cccc(N2CCC(NCc3cnc(C4CCC4)s3)CC2)n1`: the cytotoxicity at 70.5 h was determined as 3.13%. With `CC(C)(C)OC(=O)N1CCCN(c2nnc(C3CC3)s2)CC1` the figure was -0.941%; with `FC(F)(F)c1ccnc(N2CCCOCC2)c1`, -13.6%. As for `c1cncc(CN2CCC(NCCc3ccc4c(c3)CCO4)CC2)c1`, the cytotoxicity at 70.5 h worked out at 4.11%. For `NCc1ccc(Oc2cccc(Cl)c2Cl)cc1`, the cytotoxicity at 70.5 h was found to be 14.7%. With `CCOc1ccccc1Oc1ccc(CN)cn1` the figure was -7.48%; with `CCc1nc(COc2ccc(N(C)C(C)=O)cc2)no1`, 26%; with `O=c1cc(CN2CCC(CCc3ccc(O)cc3)CC2)[nH]c(=O)[nH]1`, -6.15%. In the case of `O=C(CNc1cc2c(cc1Br)OCCO2)NC1CCS(=O)(=O)C1` (stereo not drawn) it was -2.07%. Consider `NC(=O)CN1CCC(NC(=O)N2CCCC2c2ccncc2)CC1` (stereo not drawn), for which the cytotoxicity at 70.5 h is -11.7%.

For `O=C(Nc1cc2c(cc1Br)OCCO2)NC1CCS(=O)(=O)C1` (stereo not drawn), the cytotoxicity at 70.5 h amounted to 10.1%. In the case of `Cc1nnc2n1CCN(C(=O)CN1C(=O)CSc3ccccc31)C2` it was -3.59%; in that of `Cc1ncc(CN(C)C(=O)c2ccc3c(c2O)OC(C)(C)C3)s1`, -1.48%; in that of `Cc1nnc2n1CCN(C(=O)CN1C(=O)CCCc3ccccc31)C2`, 12.9%. With `Cc1cc(CNc2ccc3nc(C4CC4)sc3c2)no1` the figure was -9.59%; with `CCCNC(=O)C1CCN(CC2(O)CCC(C)CC2)CC1` (stereo not drawn), -3.07%. In the case of `CC1CCC(O)(CN2CCN(CCNC(=O)C3CCC3)CC2)CC1` (stereo not drawn) it was -14.6%; in that of `O=C(NS(=O)(=O)c1cnn(-c2ccccc2F)c1)c1ccco1`, 1.58%. In the case of `CC(C)c1cnc(CN2C(=O)CC3(CCSC3)C2=O)o1` (stereo not drawn), the cytotoxicity at 70.5 h was -3.08%.

As to `Nc1nccnc1C(=O)N(Cc1ccco1)CC1CCCO1` (stereo not drawn), the cytotoxicity at 70.5 h was -2.09%. With `CC(C)(C)c1cnc(CN2C(=O)CC3(CCSC3)C2=O)o1` (stereo not drawn) the figure was -4.79%; with `CCOc1ccc(NC(=O)N(CCC#N)Cc2ccccn2)cc1F`, 12%. In the case of `COCCCNC(=O)C1CCN(CC2(O)CCC(C)CC2)CC1` (stereo not drawn) it was -3.99%. For `CC(c1ccccc1)N(C)C(=O)CN1CCCc2cccc(F)c21` (stereo not drawn), the cytotoxicity at 70.5 h was 0.621%. Consider `CC(C)c1noc(CN(C)C(c2ccc(F)cc2)c2cccnc2)n1` (stereo not drawn), for which the cytotoxicity at 70.5 h is 10.2%. In the case of `Cc1ncsc1CN(C)C(=O)C(CC(C)C)N1CCCCC1=O` (stereo not drawn) it was -2.15%. In the case of `COCCNC(=O)c1nn(-c2cccc(C(C)C)c2)cc1O` it was 41.1%; in that of `Cc1noc(C)c1CN(C)CC(=O)/N=c1\cc[nH]n1C(C)C1CC1` (stereo not drawn), 22.1%. As to `COCc1nc(CNc2cccc(-c3ncon3)c2)cs1`, the cytotoxicity at 70.5 h came out at 29.2%. For `CCN(C(=O)CN1CCCC1c1ccc(OC)cc1)c1ccccc1C` (stereo not drawn), the cytotoxicity at 70.5 h is -0.0656%. With `Cc1sc2nc(SC(C)c3nc(C(C)C)no3)nc(N)c2c1C` (stereo not drawn) the figure was 3.75%; with `Cn1cc(CNC(=O)C2COCC(=O)N2Cc2ccccc2)cn1` (stereo not drawn), 2.62%.

Turning to `CC(C)CCN(C(=O)c1cc2c([nH]c1=O)CCCC2=O)C1CC1`, the cytotoxicity at 70.5 h is -2.36%. Turning to `COc1c(C)cnc(CNC(=O)CCc2nc3ccccc3[nH]2)c1C`, the cytotoxicity at 70.5 h is -3.14%. In the case of `Cc1occc1C(=O)N1CCC(C(O)c2ccc(Cl)cc2)CC1` (stereo not drawn) it was 5.5%; in that of `CCc1cnc(CN2CCOC(c3nc(C)n[nH]3)C2)o1` (stereo not drawn), -7.69%. In the case of `CNC(=O)c1csc(-c2ccoc2)n1` it was -4.01%. Consider `O=c1[nH]nc(CNc2cncc(Br)c2)[nH]1`, for which the cytotoxicity at 70.5 h turned out to be 29.9%.

Consider `CC(C)Cc1ccc(S(=O)(=O)NCCCN2CCNC(=O)C2)cc1`, for which the cytotoxicity at 70.5 h is -3.66%. With `CN(C)C(=O)CN1CCCc2c(F)cc(Br)cc21` the figure was -2.61%; with `COc1ccccc1OCCC(=O)NCc1ncc(C)c(OC)c1C`, -4.64%. With `COCCN(CCN(C)C)C(=O)NC1CC1` the figure was -2.74%; with `COC(=O)c1cccc(CNC(=O)c2cc(C(C)C)n(C)n2)c1`, 27.4%; with `CC(Cn1cccn1)NCCS(=O)(=O)c1ccccc1` (stereo not drawn), -8.75%.

Turning to `CC(Cn1cccn1)NCCS(=O)(=O)c1ccc(Cl)cc1` (stereo not drawn), the cytotoxicity at 70.5 h was -9.68%. `COc1ccc2c(c1)C(NCCc1c(C)noc1C)CCCO2` (stereo not drawn): the cytotoxicity at 70.5 h was 29.3%. With `O=C(CN1CCCc2c(F)cc(Br)cc21)N1CCCC1` the figure was 3.5%; with `CN(CC(O)C1CC1)C(=O)c1ccc(-c2nc(C3CC3)no2)cc1` (stereo not drawn), 2.53%; with `COc1cccc(S(=O)(=O)CCNCCn2cccn2)c1`, -10.6%. With `CC(=O)N(c1ccc(C)cc1)c1nc(CN2CCCCC2C)cs1` (stereo not drawn) the figure was 16.8%. Regarding `CNS(=O)(=O)CCCN1CCN(C(C)c2cccnc2)CC1` (stereo not drawn), the cytotoxicity at 70.5 h stood at 18.3%. With `COc1ccc(CCNC(=O)CC(NC(N)=O)c2ccccc2)cc1` (stereo not drawn) the figure was 14.7%; with `Cc1nnc(NC(=O)NC(C)C(=O)NC2CCCC2)s1` (stereo not drawn), -3.86%; with `CN(C)C(=O)CCNC(=O)NCc1ccc(Br)cc1Cl`, 17.2%.

Take `CC(=O)NCCNC(=O)NCc1ccc(Br)cc1Cl`: the cytotoxicity at 70.5 h was -0.47%.
